Measurements taken from the NIST ThermoML archive (doi:10.1016/j.tca.2012.04.001).

Experiments:
[1] = 101.33 kPa, Liquid, Vibrating tube method
[2] = xn = mol fraction of the nth substance listed; conditions: 101 kPa, Liquid, Vibrating tube method

CCCCCCC [heptane]
[1]
Conditions	mass density [kg/m3]
288.15 K	688.588
303.15 K	675.838
313.15 K	665.838

CCCCCl [1-chlorobutane] + CCC(C)=O
mass density [kg/m3], [2]
Conditions	288.15 K	303.15 K	313.15 K
x1 = 0.0603	815.629	799.819	789.16
x1 = 0.102	819.225	803.373	792.657
x1 = 0.1968	827.479	811.507	800.7
x1 = 0.2964	835.868	819.774	808.881
x1 = 0.4017	844.704	828.487	817.514
x1 = 0.4502	848.687	832.432	821.402
x1 = 0.5138	853.847	837.516	826.466
x1 = 0.5467	856.509	840.156	829.081
x1 = 0.6451	864.357	847.919	836.788
x1 = 0.6988	868.609	852.133	840.975
x1 = 0.7994	876.429	859.878	848.676
x1 = 0.8296	878.808	862.217	850.983
x1 = 0.9037	884.435	867.832	856.591
x1 = 0.9336	886.734	870.09	858.856

CCCC(C)=O [pentan-2-one] + CCCCCCC
mass density [kg/m3], [2]
Conditions	288.15 K	303.15 K	313.15 K
x2 = 0.0562	801.549	787.145	777.44
x2 = 0.1047	793.314	778.964	769.309
x2 = 0.1946	778.848	764.618	755.031
x2 = 0.2463	770.971	756.828	747.271
x2 = 0.3006	763.126	748.98	739.521
x2 = 0.312	761.486	747.38	737.93
x2 = 0.3664	754.046	740.019	730.578
x2 = 0.4233	746.601	732.618	723.231
x2 = 0.4921	738.067	724.274	714.996
x2 = 0.5566	730.511	716.874	707.632
x2 = 0.6001	725.625	712.061	702.877
x2 = 0.7003	715.045	701.616	692.572
x2 = 0.7526	709.893	696.524	687.536
x2 = 0.8233	703.177	689.947	681.074
x2 = 0.8918	697.119	684.045	675.297
x2 = 0.95	692.408	679.462	670.763

CCCC(C)=O [pentan-2-one]
[1]
Conditions	mass density [kg/m3]
288.15 K	811.491
303.15 K	796.955
313.15 K	787.16

CCCCCl [1-chlorobutane]
[1]
Conditions	mass density [kg/m3]
288.15 K	891.747
303.15 K	875.099
313.15 K	863.833

CCCC(C)=O [pentan-2-one] + CCCCCl
mass density [kg/m3], [2]
Conditions	288.15 K	303.15 K	313.15 K
x2 = 0.0725	816.977	802.287	792.387
x2 = 0.1054	819.501	804.742	794.796
x2 = 0.1321	821.521	806.72	796.726
x2 = 0.2299	829.083	814.071	803.941
x2 = 0.2994	834.489	819.331	809.089
x2 = 0.3515	838.598	823.323	813
x2 = 0.4369	845.4	829.942	819.494
x2 = 0.493	849.874	834.295	823.772
x2 = 0.5816	857.018	841.242	830.585
x2 = 0.6518	862.707	846.788	836.036
x2 = 0.6948	866.208	850.202	839.378
x2 = 0.749	870.664	854.538	843.633
x2 = 0.8055	875.345	859.097	848.116
x2 = 0.8359	877.911	861.609	850.574
x2 = 0.8866	882.185	865.757	854.665
x2 = 0.9145	884.566	868	856.9

CCC(C)=O [butanone]
[1]
Conditions	mass density [kg/m3]
288.15 K	810.328
303.15 K	794.629
313.15 K	784.008

CCC(C)=O [butanone] + CCCCCCC
mass density [kg/m3], [2]
Conditions	288.15 K	303.15 K	313.15 K
x2 = 0.0488	799.693	784.166	773.658
x2 = 0.0875	791.829	776.433	766.011
x2 = 0.1976	771.92	756.87	746.674
x2 = 0.2409	764.837	749.92	739.808
x2 = 0.2995	755.954	741.212	731.216
x2 = 0.3726	745.725	731.183	721.184
x2 = 0.444	736.645	722.313	712.588
x2 = 0.4708	733.346	719.166	709.492
x2 = 0.5132	728.532	714.398	704.806
x2 = 0.5941	719.999	706.083	696.646
x2 = 0.7024	709.67	696.076	686.851
x2 = 0.7471	705.937	692.464	683.324
x2 = 0.8016	701.621	688.317	679.294
x2 = 0.8341	699.194	686.007	677.044
x2 = 0.896	694.863	681.831	672.997
x2 = 0.9545	691.133	678.282	669.575

CCCCCl [1-chlorobutane] + CCCCCCC
mass density [kg/m3], [2]
Conditions	288.15 K	303.15 K	313.15 K
x1 = 0.0407	694.279	681.416	672.687
x1 = 0.0779	699.652	686.682	677.87
x1 = 0.1497	710.416	697.174	688.219
x1 = 0.2169	720.981	707.546	698.49
x1 = 0.2496	726.25	712.73	703.568
x1 = 0.2565	727.4	713.798	704.618
x1 = 0.2999	734.714	720.999	711.752
x1 = 0.363	745.784	731.835	722.416
x1 = 0.4023	752.916	738.839	729.286
x1 = 0.5009	771.635	757.206	747.426
x1 = 0.5052	772.539	758.088	748.294
x1 = 0.5987	791.61	776.768	766.715
x1 = 0.7138	817.052	801.757	791.398
x1 = 0.7493	825.378	809.928	799.44
x1 = 0.8009	837.92	822.176	811.608
x1 = 0.8875	860.284	844.077	833.14
x1 = 0.9476	876.694	860.27	849.181
